From patent US9315498B2, “Arlethynyl derivatives” (Hoffmann-La Roche Inc., priority 2010, dated 2016)

Target: human mGlu5a receptor (Homo sapiens (Human), UniProt P41594)
Assay: Intracellular Ca2+ mobilization assay (mGlu5 PAM)
Type: cell-based
Settings: for EC50: HEK-293 cells stably transfected with human mGlu5a, L-glutamate added at EC20 after pre-incubation with test compound, read-out: EC50 (nM) mGlu5PAM; for Emax: maximal response in % of the maximal stimulatory effect obtained with saturating concentrations of L-glutamate, read-out: Eff. (%)
Procedure, shortened: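 HEK-293 cells stably expressing human mGlu5a at low level were loaded with Fluo-4AM and preincubated 10–30 min at 37 °C with 11-point half-log compound dilutions. L-glutamate was then added at its daily-determined EC20 (typically around 80 μM). Peak fluorescence minus basal, normalized to maximal glutamate effect, was fitted to give EC50, Hill slope and maximal response.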

human mGlu5a receptor, sequence (P41594 other isoform, or with tags, fused parts or gaps): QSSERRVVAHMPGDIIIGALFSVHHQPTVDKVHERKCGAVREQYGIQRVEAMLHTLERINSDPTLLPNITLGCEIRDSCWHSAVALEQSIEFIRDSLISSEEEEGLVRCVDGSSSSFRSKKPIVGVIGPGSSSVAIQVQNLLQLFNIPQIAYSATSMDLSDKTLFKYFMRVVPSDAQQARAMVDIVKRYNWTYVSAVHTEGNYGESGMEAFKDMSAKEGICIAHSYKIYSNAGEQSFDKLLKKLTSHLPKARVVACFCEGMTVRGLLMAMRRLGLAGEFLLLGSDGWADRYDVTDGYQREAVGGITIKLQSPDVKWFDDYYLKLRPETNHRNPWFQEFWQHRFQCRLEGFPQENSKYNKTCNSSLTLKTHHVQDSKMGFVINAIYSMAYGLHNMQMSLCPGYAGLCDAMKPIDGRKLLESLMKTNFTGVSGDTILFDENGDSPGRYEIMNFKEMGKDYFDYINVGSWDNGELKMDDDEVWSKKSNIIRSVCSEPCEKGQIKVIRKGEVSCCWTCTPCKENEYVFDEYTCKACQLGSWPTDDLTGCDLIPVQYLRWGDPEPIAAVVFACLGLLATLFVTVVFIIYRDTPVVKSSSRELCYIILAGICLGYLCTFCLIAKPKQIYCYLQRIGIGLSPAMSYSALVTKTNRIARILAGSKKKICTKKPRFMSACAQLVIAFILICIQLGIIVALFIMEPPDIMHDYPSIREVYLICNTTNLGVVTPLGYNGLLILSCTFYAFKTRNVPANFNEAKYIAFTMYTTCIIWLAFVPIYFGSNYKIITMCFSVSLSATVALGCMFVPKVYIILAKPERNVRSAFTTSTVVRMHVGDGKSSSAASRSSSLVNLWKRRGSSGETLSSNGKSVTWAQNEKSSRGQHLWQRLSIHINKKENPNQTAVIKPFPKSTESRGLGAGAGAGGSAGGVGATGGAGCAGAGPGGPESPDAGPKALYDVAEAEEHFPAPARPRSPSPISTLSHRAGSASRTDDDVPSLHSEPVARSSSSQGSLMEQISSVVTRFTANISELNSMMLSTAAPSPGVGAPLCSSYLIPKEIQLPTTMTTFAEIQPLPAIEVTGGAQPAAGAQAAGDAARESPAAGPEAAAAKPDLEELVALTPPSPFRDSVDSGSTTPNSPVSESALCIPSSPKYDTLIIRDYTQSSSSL

CC1(C)CC(=O)N(c2ncc(C#Cc3cc(F)ccc3F)cn2)C1 [Example 121, 1-[5-(2,5-Difluoro-phenylethynyl)-pyrimidin-2-yl]-4,4-dimethyl-pyrrolidin-2-one]
EC50: 41 nM | Emax: 70%

CN1C(=O)N(c2ncc(C#Cc3ccccc3)cn2)CC1(C)C [Example 122, 3,4,4-Trimethyl-1-(5-phenylethynyl-pyrimidin-2-yl)-imidazolidin-2-one]
EC50: 11 nM | Emax: 36%

CN1C(=O)N(c2ncc(C#Cc3cccc(F)c3)cn2)CC1(C)C [Example 123, 1-[5-(3-Fluoro-phenylethynyl)-pyrimidin-2-yl]-3,4,4-trimethyl-imidazolidin-2-one]
EC50: 18 nM | Emax: 30%

CN1C(=O)N(c2ncc(C#Cc3cc(F)ccc3F)cn2)CC1(C)C [Example 124, 1-[5-(2,5-Difluoro-phenylethynyl)-pyrimidin-2-yl]-3,4,4-trimethyl-imidazolidin-2-one]
EC50: 7 nM | Emax: 43%

CN1C(=O)N(c2ncc(C#Cc3ccc(F)cc3)cn2)CC1(C)C [Example 125, 1-[5-(4-Fluoro-phenylethynyl)-pyrimidin-2-yl]-3,4,4-trimethyl-imidazolidin-2-one]
EC50: 13 nM | Emax: 44%

CN1C(=O)N(c2ncc(C#Cc3ccc(F)c(F)c3)cn2)CC1(C)C [Example 126, 1-[5-(3,4-Difluoro-phenylethynyl)-pyrimidin-2-yl]-3,4,4-trimethyl-imidazolidin-2-one]
EC50: 23 nM | Emax: 36%

CC1(C)CCN(c2ncc(C#Cc3ccccc3)cn2)C(=O)C1 [Example 134, 4,4-Dimethyl-1-(5-phenylethynyl-pyrimidin-2-yl)-piperidin-2-one]
EC50: 42 nM | Emax: 90%

CC1(C)CCN(c2ncc(C#Cc3cccc(F)c3)cn2)C(=O)C1 [Example 135, 1-[5-(3-Fluoro-phenylethynyl)-pyrimidin-2-yl]-4,4-dimethyl-piperidin-2-one]
EC50: 35 nM | Emax: 47%

CC1(C)CCN(c2ncc(C#Cc3cc(F)ccc3F)cn2)C(=O)C1 [Example 136, 1-[5-(2,5-Difluoro-phenylethynyl)-pyrimidin-2-yl]-4,4-dimethyl-piperidin-2-one]
EC50: 31 nM | Emax: 49%

CN1C(=O)N(c2ncc(C#Cc3ccccc3)cn2)CCC1(C)C [Example 137, 3,4,4-Trimethyl-5′-phenylethynyl-3,4,5,6-tetrahydro-[1,2′]bipyrimidinyl-2-one]
EC50: 66 nM | Emax: 74%

CN1C(=O)N(c2ncc(C#Cc3cccc(F)c3)cn2)CCC1(C)C [Example 138, 5′-(3-Fluoro-phenylethynyl)-3,4,4-trimethyl-3,4,5,6-tetrahydro-[1,2′]bipyrimidinyl-2-one]
EC50: 60 nM | Emax: 67%

CN1C(=O)N(c2ncc(C#Cc3cc(F)ccc3F)cn2)CCC1(C)C [Example 139, 5′-(2,5-Difluoro-phenylethynyl)-3,4,4-trimethyl-3,4,5,6-tetrahydro-[1,2′]bipyrimidinyl-2-one]
EC50: 57 nM | Emax: 54%

CC(C)N1C(=O)N(c2ncc(C#Cc3ccccc3)cn2)CC1(C)C [Example 140, 3-Isopropyl-4,4-dimethyl-1-(5-phenylethynyl-pyrimidin-2-yl)-imidazolidin-2-one]
EC50: 28 nM | Emax: 58%

CC(C)N1C(=O)N(c2ncc(C#Cc3cccc(F)c3)cn2)CC1(C)C [Example 141, 1-[5-(3-Fluoro-phenylethynyl)-pyrimidin-2-yl]-3-isopropyl-4,4-dimethyl-imidazolidin-2-one]
EC50: 28 nM | Emax: 39%

CC(C)N1C(=O)N(c2ncc(C#Cc3ccc(F)cc3)cn2)CC1(C)C [Example 142, 1-[5-(4-Fluoro-phenylethynyl)-pyrimidin-2-yl]-3-isopropyl-4,4-dimethyl-imidazolidin-2-one]
EC50: 78 nM | Emax: 74%

CCN1C(=O)N(c2ncc(C#Cc3ccc(F)cc3)cn2)CC1(C)C [Example 143, 1-[5-(4-Fluoro-phenylethynyl)-pyrimidin-2-yl]-3-ethyl-4,4-dimethyl-imidazolidin-2-one]
EC50: 47 nM | Emax: 68%

CCN1C(=O)N(c2ncc(C#Cc3cccc(F)c3)cn2)CC1(C)C [Example 144, 1-[5-(3-Fluoro-phenylethynyl)-pyrimidin-2-yl]-3-ethyl-4,4-dimethyl-imidazolidin-2-one]
EC50: 31 nM | Emax: 58%

CN1C(=O)N(c2ncc(C#Cc3ccccc3)cn2)CC12CC2 [Example 147, 4-Methyl-6-(5-phenylethynyl-pyrimidin-2-yl)-4,6-diaza-spiro[2.4]heptan-5-one]
EC50: 25 nM | Emax: 36%

CC1(C)CC(=O)N(c2ccc(C#Cc3ccccc3)nn2)C1 [Example 150, 4,4-Dimethyl-1-(6-(phenylethynyl)pyridazin-3-yl)pyrrolidin-2-one]
EC50: 21 nM | Emax: 113%

CC1(C)CCN(c2ccc(C#Cc3ccccc3)nn2)C(=O)C1 [Example 151, 4,4-Dimethyl-1-(6-(phenylethynyl)pyridazin-3-yl)piperidin-2-one]
EC50: 19 nM | Emax: 130%

CC1(C)CN(c2ccc(C#Cc3ccccc3)nn2)C(=O)O1 [Example 152, 5,5-Dimethyl-3-(6-(phenylethynyl)pyridazin-3-yl)oxazolidin-2-one]
EC50: 15 nM | Emax: 112%

CC1(C)CCN(c2ccc(C#Cc3ccccc3)nn2)C(=O)O1 [Example 153, 6,6-Dimethyl-3-(6-(phenylethynyl)pyridazin-3-yl)-1,3-oxazinan-2-one]
EC50: 14 nM | Emax: 86%

Cc1cccc(C#Cc2ccc(N3CC(C)(C)N(C)C3=O)nn2)c1 [Example 154, 3,4,4-Trimethyl-1-(6-(m-tolylethynyl)pyridazin-3-yl)imidazolidin-2-one]
EC50: 61 nM | Emax: 108%

CN1C(=O)N(c2ccc(C#Cc3cccc(Cl)c3)nn2)CC1(C)C [Example 155, 1-(6-((3-Chlorophenyl)ethynyl)pyridazin-3-yl)-3,4,4-trimethylimidazolidin-2-one]
EC50: 73 nM | Emax: 95%

CN1C(=O)N(c2cnc(C#Cc3ccccc3)cn2)CC1(C)C [Example 156, 3,4,4-Trimethyl-1-(5-(phenylethynyl)pyrazin-2-yl)imidazolidin-2-one]
EC50: 24 nM | Emax: 58%

CN1C(=O)N(c2cnc(C#Cc3cccnc3)cn2)CC1(C)C [Example 157, 3,4,4-Trimethyl-1-(5-(pyridin-3-ylethynyl)pyrazin-2-yl)imidazolidin-2-one]
EC50: 206 nM | Emax: 34%

CN1C(=O)N(c2cnc(C#Cc3cccc(F)c3)cn2)CC1(C)C [Example 158, 1-(5-((3-Fluorophenyl)ethynyl)pyrazin-2-yl)-3,4,4-trimethylimidazolidin-2-one]
EC50: 46 nM | Emax: 36%

CN1C(=O)N(c2cnc(C#Cc3ccc(F)cc3)cn2)CC1(C)C [Example 159, 1-(5-((4-Fluorophenyl)ethynyl)pyrazin-2-yl)-3,4,4-trimethylimidazolidin-2-one]
EC50: 49 nM | Emax: 49%

CC1(C)CC(=O)N(c2cnc(C#Cc3cccc(F)c3)cn2)C1 [Example 160]
EC50: 29 nM | Emax: 39%

CC1(C)CCN(c2cnc(C#Cc3cccc(F)c3)cn2)C(=O)C1 [Example 161, 1-(5-((3-Fluorophenyl)ethynyl)pyrazin-2-yl)-4,4-dimethylpiperidin-2-one]
EC50: 29 nM | Emax: 68%

CC1(C)CCN(c2cnc(C#Cc3cccnc3)cn2)C(=O)C1 [Example 162, 4,4-Dimethyl-1-(5-(pyridin-3-ylethynyl)pyrazin-2-yl)piperidin-2-one]
EC50: 681 nM | Emax: 76%

CC1(C)CCN(c2cnc(C#Cc3ccccc3)cn2)C(=O)C1 [Example 163, 4,4-Dimethyl-1-(5-(phenylethynyl)pyrazin-2-yl)piperidin-2-one]
EC50: 69 nM | Emax: 74%

CC1(C)CCN(c2cnc(C#Cc3ccccc3)cn2)C(=O)N1 [Example 164, 4,4-Dimethyl-1-(5-(phenylethynyl)pyrazin-2-yl)tetrahydropyrimidin-2(1H)-one]
EC50: 329 nM | Emax: 89%

CN1C(=O)N(c2cnc(C#Cc3ccccc3)cn2)CCC1(C)C [Example 165, 3,4,4-Trimethyl-1-(5-(phenylethynyl)pyrazin-2-yl)tetrahydropyrimidin-2(1H)-one]
EC50: 36 nM | Emax: 55%

CC1(C)CCN(c2cnc(C#Cc3cccc(F)c3)cn2)C(=O)N1 [Example 166, 1-(5-((3-Fluorophenyl)ethynyl)pyrazin-2-yl)-4,4-dimethyltetrahydropyrimidin-2(1H)-one]
EC50: 140 nM | Emax: 56%

CN1C(=O)N(c2cnc(C#Cc3cccc(F)c3)cn2)CCC1(C)C [Example 167, 1-(5-((3-Fluorophenyl)ethynyl)pyrazin-2-yl)-3,4,4-trimethyltetrahydropyrimidin-2(1H)-one]
EC50: 26 nM | Emax: 54%

CC1(C)CCN(c2cnc(C#Cc3ccccc3)cn2)C(=O)O1 [Example 168, 6,6-Dimethyl-3-(5-(phenylethynyl)pyrazin-2-yl)-1,3-oxazinan-2-one]
EC50: 15 nM | Emax: 41%

CC1(C)CN(c2ccc(C#Cc3ccccc3)cn2)C(=O)CO1 [Example 172, 6,6-Dimethyl-4-(5-phenylethynyl-pyridin-2-yl)-morpholin-3-one]
EC50: 29 nM | Emax: 82%

O=C1CS(=O)(=O)CCN1c1ccc(C#Cc2ccccc2)cn1 [Example 173, 1,1-Dioxo-4-(5-phenylethynyl-pyridin-2-yl)-thiomorpholin-3-one]
EC50: 29 nM | Emax: 82%
